According to patent publication US12331343B2, “FAMIN assay methods” (Cambridge Enterprise Limited, priority 2018, dated 2025):
Blank lines part the entries; values can stand above or below the molecule they belong to.

What was measured:
[1] = molecular target: T1, recombinant human FAMIN (Homo sapiens, UniProt Q8IV20); assay: specificity of FAMIN activity towards purine and pyrimidine nucleosides (substrate consumption, LC-MS); type: biochemical; conditions: pure substrate with 10 μg recombinant FAMIN in 100 μl PBS, pH 7.4, 1 h at 37° C. (FIG. 2A, 2N, 2R, 2S)
T1 construct: twin Strep-tag (followed by short linker and TEV cleavage site) (N, cleaved yes); made in house; host or cells: HEK293T
T1 sequence (Q8IV20 1-430): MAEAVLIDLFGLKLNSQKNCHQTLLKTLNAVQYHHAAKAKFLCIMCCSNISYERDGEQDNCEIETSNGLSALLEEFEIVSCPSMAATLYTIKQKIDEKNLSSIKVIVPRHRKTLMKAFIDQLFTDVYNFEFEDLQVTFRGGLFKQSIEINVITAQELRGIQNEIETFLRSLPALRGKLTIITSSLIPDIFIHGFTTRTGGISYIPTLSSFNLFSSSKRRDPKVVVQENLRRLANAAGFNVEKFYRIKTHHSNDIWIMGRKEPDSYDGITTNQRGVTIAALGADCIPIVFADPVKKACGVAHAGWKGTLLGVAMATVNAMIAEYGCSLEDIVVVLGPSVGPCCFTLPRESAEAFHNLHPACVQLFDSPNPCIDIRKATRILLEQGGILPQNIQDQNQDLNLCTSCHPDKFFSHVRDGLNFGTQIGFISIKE
Source text: Peak intensity of each extracted chromatogram per given m/z value normalised to maximum level of 100. Controls as indicated include reaction buffer (PBS), protein elution buffer as described in methods, recombinant FAMIN without substrate or protein buffer with adenosine substrate. […] FIGS. 2C, 2D, 2E, and 2F show representative chromatograms and mass spectra for (2C) adenine, (2D) hypoxanthine, (2E) inosine and (2F) ribose-1-phosphate. Upper panels: (2C-E) extracted positive ion chromatogram showing injection of (2C) 1 μM standard of adenine; (2D) 5 μM standard of hypoxanthine; (2E) 5 μM standard of inosine on a BEH C8 column; (2F) extracted negative ion chromatogram showing injection of a 5 μg/mL standard of ribose-1-phosphate on a BEH amide HILIC column. All measurements performed using the Q Exactive Orbitrap and extracted at m/z values of (2C) adenine [M+H]^+: 136.0617, (2D) hypoxanthine [M+H]^+: 137.0457, (2E) inosine [M+H]^+: 269.0877 and (2F) ribose-1-phosphate [M−H]^−: 229.0119 at a tolerance of 2 ppm. Middle panels: Corresponding extracted chromatograms of a representative sample (10 μg recombinant FAMIN^254I incubated with 10 μM adenosine for 1 h in 100 μl phosphate-buffered saline). Peaks at indicated retention times perfectly match those of adenine, hypoxanthine, inosine and ribose-1-phosphate standards. Lower panels: high resolution Fourier transform mass spectrometry (FTMS) mass spectrum of the representative FAMIN^254I incubated sample during the peaks putatively identified as (2C) adenine, (2D) hypoxanthine, (2E) inosine, or (2F) ribose-1-phosphate. Nominal m/z values of (2C) 136, (2D) 137, (2E) 269 and (2F) 229, respectively, were selectively targeted and fragmented using a higher-energy collision dissociation (HCD) collision voltage of 25 eV to give the fragments shown. […] Calculated from absolute levels of hypoxanthine and inosine quantified using ^13C2, ^15N1-hypoxanthine and ^15N4-inosine internal standards, and adenine levels estimated using adenine external standard. […] (SAM; S-adenosylmethionine; MTA, S-methyl-5′-thioadenosine; 2′-dA, 2′-deoxyadenosine; n=3, mean±S.E.M.). […] FIGS. 2P and 2Q show on the left FAMIN catalysed enzymatic reactions. On the right they show levels of guanine or hypoxanthine and ribose-1-phosphate in reactions containing 100 μM guanosine or inosine and recombinant FAMIN or buffer control in 100 μl after 1 h at 37° C. (n=3, mean±S.E.M.). […] On the lower panels adenine, 2′-deoxyinosine, hypoxanthine and deoxyribose-1-phosphate levels following incubation of 10 μg recombinant FAMIN or buffer control with 10 μM 2′deoxyadenosine for 1 h in 100 μl PBS (n=3 each, mean±S.E.M.). […] All metabolite level data in this figure measured as area under the chromatographic peak, normalised for total ion content. *P<0.05 (unpaired, two-tailed Student's t-test).
(§1) Putative enzymatic function of recombinant human strep-tagged FAMIN was investigated against aqueous HepG2 metabolite extracts (dried, Folch extracted from 5×10^6 cells) or nucleoside substrates at indicated concentrations and detected using HPLC-MS as described above. Unless otherwise indicated in the figure legends, HEK293T cell-expressed protein was used for all assays. The reaction mixture (final volume 100 μL) consisted of 10 μg of recombinant protein and 10 μM nucleoside substrate in Dulbecco's PBS (Thermo Fisher), pH 7.4 unless otherwise indicated. The samples were incubated at 37° C. for 1 h and then quenched with ×5 volume of ice-cold methanol. Samples were centrifuged at 21,000 g for 5 min transferred to fresh tubes and then dried down prior to analysis as described above.

[2] = molecular target: T1, recombinant human FAMIN; assay: adenosine deaminase activity of FAMIN (adenosine to inosine, LC-MS); type: biochemical; conditions: 10 μg recombinant FAMIN, 10 μM adenosine in PBS, 1 h at 37° C. (FIG. 5A)
[3] = molecular target: T1, recombinant human FAMIN; assay: adenosine phosphorylase activity of FAMIN (adenosine to adenine and ribose-1-phosphate, LC-MS); type: biochemical; conditions: 10 μg recombinant FAMIN, 10 μM adenosine in PBS, 1 h at 37° C. (FIG. 5B, 5C)
Experimental: (§2) FIGS. 5B and 5C show levels of adenine and ribose-1-phosphate ([…]) in the reaction described in FIG. 5A. […] For enzyme kinetic assays a further chromatographic approach was used to allow for analysis of all substrates and products using a single assay. A Waters BEH C8 column was used (100×2.1 mm, 1.7 μm) with a weak mobile phase (A) of aqueous 10 mM ammonium acetate with 0.1% ammonia and a strong mobile phase (B) of acetonitrile. For gradient elution mobile phase B was held at 0% for 1.6 min, followed by a linear gradient to 30% B over 4.0 minutes, a further increase to 90% over 1 min, and a hold at 90% B for 1 min, with re-equilibration for 1.5 minutes giving a total run time of 6.5 minutes. The flow rate was 0.5 mL/min and the injection volume was 2 μL. The needle wash used was 4:1 water:acetonitrile. Putative enzymatic function of recombinant human strep-tagged FAMIN was investigated against aqueous HepG2 metabolite extracts (dried, Folch extracted from 5×10^6 cells) or nucleoside substrates at indicated concentrations and detected using HPLC-MS as described above. Unless otherwise indicated in the figure legends, HEK293T cell-expressed protein was used for all assays. The reaction mixture (final volume 100 μL) consisted of 10 μg of recombinant protein and 10 μM nucleoside substrate in Dulbecco's PBS (Thermo Fisher), pH 7.4 unless otherwise indicated. The samples were incubated at 37° C. for 1 h and then quenched with ×5 volume of ice-cold methanol. Samples were centrifuged at 21,000 g for 5 min transferred to fresh tubes and then dried down prior to analysis as described above.

[4] = molecular target: T1, recombinant human FAMIN; assay: purine nucleoside phosphorylase activity of FAMIN (inosine to hypoxanthine and ribose-1-phosphate, LC-MS); type: biochemical; conditions: 10 μg recombinant FAMIN, 10 μM inosine in PBS, 1 h at 37° C. (FIG. 5D, 5E)
Experimental: as §2, with “The samples were incubated at 37° C. for 1 h and then quenched with ×5 volume of ice-cold methanol. Samples were centrifuged at 21,000 g for 5 min transferred to fresh tubes and then dried down prior to analysis as described above.” left out

[5] = substrate: Nc1ncnc2c1ncn2[C@@H]1O[C@H](CO)[C@@H](O)[C@H]1O; assay: adenosine deaminase activity of FAMIN (adenosine to inosine, LC-MS); type: biochemical, human; conditions: other: 500 nM to 100 μM adenosine, inosine production, 1 h at 37° C., pH 7.4 (FIG. 3A)
[6] = substrate: Nc1ncnc2c1ncn2[C@@H]1O[C@H](CO)[C@@H](O)[C@H]1O; assay: adenosine phosphorylase activity of FAMIN (adenosine to adenine and ribose-1-phosphate, LC-MS); type: biochemical, human; conditions: other: 500 nM to 100 μM adenosine, adenine production, 1 h at 37° C., pH 7.4 (FIG. 3A)
Experimental: as §2, with “The samples were incubated at 37° C. for 1 h and then quenched with ×5 volume of ice-cold methanol. Samples were centrifuged at 21,000 g for 5 min transferred to fresh tubes and then dried down prior to analysis as described above.” left out

[7] = substrate: OC[C@H]1O[C@@H](n2cnc3c(O)ncnc32)[C@H](O)[C@@H]1O; assay: purine nucleoside phosphorylase activity of FAMIN (inosine to hypoxanthine and ribose-1-phosphate, LC-MS); type: biochemical, human; conditions: other: 500 nM to 100 μM inosine, hypoxanthine production, 1 h at 37° C., pH 7.4 (FIG. 3A)
Experimental: as §2, with “The samples were incubated at 37° C. for 1 h and then quenched with ×5 volume of ice-cold methanol. Samples were centrifuged at 21,000 g for 5 min transferred to fresh tubes and then dried down prior to analysis as described above.” left out

[8] = substrate: CSC[C@H]1O[C@@H](n2cnc3c(N)ncnc32)[C@H](O)[C@@H]1O; assay: S-methyl-5'-thioadenosine phosphorylase activity of FAMIN (MTA to adenine, LC-MS); type: biochemical, human; conditions: other: 500 nM to 100 μM MTA, adenine production, 1 h at 37° C., pH 7.4 (FIG. 3A)
Experimental: Activity measured as inosine, hypoxanthine and adenine production following incubation with protein for 1 h at 37° C. at pH 7.4.
For enzyme kinetic assays a further chromatographic approach was used to allow for analysis of all substrates and products using a single assay. A Waters BEH C8 column was used (100×2.1 mm, 1.7 μm) with a weak mobile phase (A) of aqueous 10 mM ammonium acetate with 0.1% ammonia and a strong mobile phase (B) of acetonitrile. For gradient elution mobile phase B was held at 0% for 1.6 min, followed by a linear gradient to 30% B over 4.0 minutes, a further increase to 90% over 1 min, and a hold at 90% B for 1 min, with re-equilibration for 1.5 minutes giving a total run time of 6.5 minutes. The flow rate was 0.5 mL/min and the injection volume was 2 μL. The needle wash used was 4:1 water:acetonitrile.
as §1, with “The samples were incubated at 37° C. for 1 h and then quenched with ×5 volume of ice-cold methanol. Samples were centrifuged at 21,000 g for 5 min transferred to fresh tubes and then dried down prior to analysis as described above.” left out

metabolised by FAMIN as pure substrate [1]: metabolised
Molecule: OC[C@H]1O[C@@H](n2cnc3c(O)ncnc32)[C@H](O)[C@@H]1O [inosine]

metabolised by FAMIN as pure substrate [1]: metabolised
Molecule: CSC[C@H]1O[C@@H](n2cnc3c(N)ncnc32)[C@H](O)[C@@H]1O [MTA, S-methyl-5′-thioadenosine]

metabolised by FAMIN as pure substrate [1]: consumed
Molecule: Nc1ncnc2c1ncn2[C@@H]1O[C@H](CO)[C@@H](O)[C@H]1O [adenosine]

metabolised by FAMIN as pure substrate [1]: No activity
Molecule: Nc1ccn([C@@H]2O[C@H](CO)[C@@H](O)[C@H]2O)c(=O)n1 [cytidine]

effect on adenosine deaminase activity of FAMIN (levels of inosine) [2]: inhibited
effect on FAMIN's adenosine phosphorylase activity (levels of adenine and R-1-P from adenosine) [3]: intact
Molecule: CCCCCC[C@@H]([C@@H](C)O)n1cnc2c(N)ncnc21 (racemic) [EHNA, erythro-9-(2-hydroxy-3-nonyl)adenine]

metabolised by FAMIN as pure substrate [1]: metabolised
Molecule: Nc1nc2c(ncn2[C@@H]2O[C@H](CO)[C@@H](O)[C@H]2O)c(=O)[nH]1 [guanosine]

metabolised by FAMIN as pure substrate [1]: metabolised
Molecule: Nc1ncnc2c1ncn2[C@H]1C[C@H](O)[C@@H](CO)O1 [2′-deoxy-adenosine, 2′-deoxyadenosine]

effect on FAMIN's adenosine phosphorylase activity (levels of adenine and R-1-P from adenosine) [3]: intact
Molecule: OC[C@H]1O[C@@H](n2cnc3c2NC=NC[C@H]3O)C[C@@H]1O [pentostatin]

metabolised by FAMIN as pure substrate [1]: not
Molecule: C[S+](CC[C@H](N)C(=O)[O-])C[C@H]1O[C@@H](n2cnc3c(N)ncnc32)[C@H](O)[C@@H]1O (some centres unmarked) [SAM, S-adenosylmethionine]

effect on FAMIN's purine nucleoside phosphorylase activity (generation of hypoxanthine and R-1-P from inosine) [4]: inhibited
effect on FAMIN's adenosine phosphorylase activity (levels of adenine and R-1-P from adenosine) [3]: did not affect
Molecule: Nc1nc2c(nc(N)n2[C@@H]2O[C@H](CO)[C@@H](O)[C@H]2O)c(=O)[nH]1 [8-aminoguanosine]

metabolised by FAMIN as pure substrate [1]: substrate of FAMIN
Molecule: C[C@H]1O[C@@H](n2cnc3c(N)ncnc32)[C@H](O)[C@@H]1O [5′-deoxy-adenosine, 5′-deoxyadenosine]

B1: recombinant human FAMIN (Homo sapiens) (protein)
chain: MAEAVLIDLFGLKLNSQKNCHQTLLKTLNAVQYHHAAKAKFLCIMCCSNISYERDGEQDNCEIETSNGLSALLEEFEIVSCPSMAATLYTIKQKIDEKNLSSIKVIVPRHRKTLMKAFIDQLFTDVYNFEFEDLQVTFRGGLFKQSIEINVITAQELRGIQNEIETFLRSLPALRGKLTIITSSLIPDIFIHGFTTRTGGISYIPTLSSFNLFSSSKRRDPKVVVQENLRRLANAAGFNVEKFYRIKTHHSNDIWIMGRKEPDSYDGITTNQRGVTIAALGADCIPIVFADPVKKACGVAHAGWKGTLLGVAMATVNAMIAEYGCSLEDIVVVLGPSVGPCCFTLPRESAEAFHNLHPACVQLFDSPNPCIDIRKATRILLEQGGILPQNIQDQNQDLNLCTSCHPDKFFSHVRDGLNFGTQIGFISIKE
notes: twin Strep-tag (followed by short linker and TEV cleavage site) (N, cleaved yes); made in house; host or cells: HEK293T
Km [5]: 11 µM
Km [6]: 36 µM
Km [7]: 41 µM
Km [8]: 1 µM
